# Test system: not given
# Test: not given
# Settings: not given
row,melting point,Compound
1,205 to 207 °C,"O=c1cc(N2CCCCC2)oc2c1ccc1ccccc12 [Compound 295, 2-piperidin-1-yl-benzo[h]chromen-4-one]"
2,162 to 163 °C,"O=c1cc(NCCc2cccs2)nc2c3ccccc3ccn12 [Compound 18, 2-(2-Thiophen-2-yl-ethylamino)-pyrimido[2,1-a]isoquinolin-4-one]"
3,148 °C,"Cc1cccc2c(=O)cc(N3CCOCC3)oc12 [Compound 302, 8-Methyl-2-morpholin-4-yl-chromen-4-one]"
4,159 to 161 °C,"O=c1cc(NCC(O)c2cccc(O)c2)nc2c3ccccc3ccn12 (stereo not shown) [Compound 21, 2-[2-Hydroxy-2-(3-hydroxy-phenyl)-ethylamino]-pyrimido[2,1-a]isoquinolin-4-one]"
5,137 to 138 °C,"O=c1cc(-c2ccccc2F)oc(N2CCOCC2)c1 [Compound 290, 6-(2-fluorophenyl)-2-(morpholin-4-yl)pyran-4-one]"
6,143 to 145 °C,"O=c1cc(N2CCOCC2)oc2cc(OS(=O)(=O)C(F)(F)F)ccc12 [Compound 306, Trifluoro-methanesulfonic acid 2-morpholin-4-yl-4-oxo-4H-chromen-7-yl ester]"
7,184 to 185 °C,"CN1CCN(c2cc(=O)c3ccc4ccccc4c3o2)CC1 [Compound 314, 2-(4-Methyl-piperazin-1-yl)-benzo[h]chromen-4-one]"
8,199 to 200 °C,"CC(O)CNc1cc(=O)n2ccc3ccccc3c2n1 (stereo not shown) [Compound 20, 2-(2-Hydroxypropylamino)-pyrimido[2,1-a]isoquinolin-4-one]"
9,211 to 212.5 °C,"C[C@@H]1CN(c2cc(=O)c3ccc4ccccc4c3o2)C[C@H](C)O1 [Compound 309, 2-(2,6-cis-dimethyl-morpholin-4-yl)-benzo[h]chromen-4-one]"
10,215 to 216 °C,"O=c1cc(NCC(O)CO)nc2c3ccccc3ccn12 (stereo not shown) [Compound 19, 2-(2,3-Dihydroxypropylamino)-pyrimido[2,1-a]isoquinolin-4-one]"
11,230 to 232 °C,"CC(C)(C)c1ccc(-c2cc(N3CCOCC3)cc(=O)o2)cc1 [Compound 2, 4-morpholin-4-yl-6-(4-(t-butyl)phenyl)-pyran-2-one]"
12,177.8 to 178.9 °C,"O=c1cc(N2CCOCC2)oc2c(OS(=O)(=O)C(F)(F)F)cccc12 [Compound 305, Trifluoro-methanesulfonic acid 2-morpholin-4-yl-4-oxo-4H-chromen-8-yl ester]"
13,165 to 166 °C,"O=c1cc(N2CCCC(CO)C2)nc2c3ccccc3ccn12 (stereo not shown) [Compound 9, 2-(3-Hydroxymethyl-piperidin-1-yl)pyrimido[2,1-a]isoquinolin-4-one]"
14,166 to 167 °C,"CN(CCC#N)c1cc(=O)n2ccc3ccccc3c2n1 [Compound 17, 3-[Methyl-(4-oxo-4H-pyrimido[2,1-a]isoquinolin-2-yl)-amino]-propionitrile]"

# Target: T1, Mammalian DNA-PK, isolated from Hela cell nuclear extract (Homo sapiens, UniProt P78527)
# T1 construct: Mammalian DNA-PK, isolated from Hela cell nuclear extract; endogenous in cells; host or cells: HeLa cell nuclear extract (purified per Gell and Jackson 1999)
# Test: DNA-PK inhibition assay (33P-ATP, filter binding)
# Type: biochemical
# Settings: IC50 of less than about 1 μM and/or % inhibition of more than about 50 at 1 μM; read-out: DNA-PK inhibition IC50 (particular efficacy)
# Description: In order to assess the inhibitory action of the compounds against DNA-PK in vitro, the following assay was used to determine IC50 values.
# The total assay volume per well was 40 μl.
# After 10 minutes of incubation at 30° C. the reactions were initiated by the addition of Na-ATP (50 μM final), ^33p-γATP and a 30mer double stranded DNA oligonucleotide (10 ng/μl) in a volume of 10 μl. Designated positive and negative reaction wells were done in combination with compound wells (unknowns) in order to calculate % enzyme activities. The plates were then shaken for 2 minutes and incubated at 30° C. for 45 minutes.
# Following the incubation, the reactions were quenched by the addition of 50 μl 30% acetic acid to each well. The plates were then shaken for 5 minutes and the contents of each plate (80 μl from each well) transferred over to a 96 well Polyfiltronics filtration plate, containing P81-phosphocellulose membrane (TRADE MARK)(Whatman, UK). The solutions were vacuum pumped through the membrane and each well membrane washed four times using 300 μl of 15% acetic acid. The well membranes were then air dried and 20 μl of scintillant was added to each well.
# The plates were transferred to a TopCount NXT (TRADE MARK) (Packard, UK) for scintillation counting. Values recorded are counts per minute (cpm) following a 1 minute counting time for each well.
# The enzyme activity for each compound is then calculated using the following equation: […]
# These are determined over a range of different concentrations, normally from 10 μM down to 0.01 μM. Such IC50 values are used as comparative values to identify increased compound potencies.
row,IC50,Compound
1,< 1000 nM,O=c1cc(-c2ccc(CN3Cc4cccc5cccc(c45)C3)cc2)oc(N2CCOCC2)c1 [Compound 258]
2,< 1000 nM,O=C(NCc1cccc(C(F)(F)F)c1)c1cccc(-c2cc(=O)cc(N3CCOCC3)o2)c1 [Compound 99]
3,< 1000 nM,CCOC(=O)C1CCCN(C(=O)c2ccc(-c3cc(=O)cc(N4CCOCC4)o3)cc2)C1 (stereo not shown) [Compound 215]
4,< 1000 nM,O=C(NCc1cccc(F)c1)c1ccc(-c2cc(=O)cc(N3CCOCC3)o2)cc1 [Compound 169]
5,< 1000 nM,O=C(c1ccc(-c2cc(=O)cc(N3CCOCC3)o2)cc1)N(Cc1ccccc1)Cc1ccccc1 [Compound 166]

# Same assay, conditions: concentration at which 50% of the enzyme activity is inhibited; read-out: DNA-PK Inhibition IC50
row,IC50,Compound
1,700 nM,"O=c1cc(N2CCOCC2)oc2ccc(O)cc12 [Compound 343, 6-Hydroxy-2-(morpholin-4-yl)-chromen-4-one]"
2,10000 nM,"O=c1cc(N2CCCC2)oc2c1ccc1ccccc12 [Compound 312, 2-pyrrolidin-1-yl-benzo[h]chromen-4-one]"
3,800 nM,"Cc1cccc(COc2ccc3c(=O)cc(N4CCOCC4)oc3c2)c1 [Compound 342, 7-(3-Methylbenzyloxy)-2-(morpholin-4-yl)-chromen-4-one]"

# Reference: US7674823B2, “DNA-PK inhibitors” (Cancer Research Technology Limited, priority 2001, dated 2010)
